For orientation: solubility means the dissolved amount per volume that the medium holds. Broadly, the pKa is the pH at which an ionisable group is half protonated.

For series [1] the following is noted: 8 mg dose, acidic conditions such as found in the stomach.
Series [2] in a line: physchem.
For series [3] the following is noted: 0.1 N HCl at room temperature (Bertelsen et al U.S. Pat. No. 6,713,089); cited from earlier work.
For series [4] the following is noted: cited from earlier work.
The conditions of series [5]: cited from earlier work. The source holds these as a separate data set.
For series [6] the following is noted: cited from earlier work. This is another data set of the same source.

≈ marks a conversion by molar mass, not a printed value. Read-outs that look alike come from different tables or passages of the source.

As to `CN1C(=C(O)Nc2ccccn2)C(=O)c2sc(Cl)cc2S1(=O)=O` (stereo in doubt) [lornoxicam, (3E)-6-chloro-3-[hydroxy(pyridin-2-ylamino)methylene]-2-methyl-2,3-dihydro-4H-thieno[2,3-e][1,2]thiazin-4-one 1,1-dioxide], the “volume of acid required for complete dissolution” value in series [1] was “more than 1400 ml”. Also, the solubility in series [2] (pH 1.2, simulated gastric fluid) is 5.6 µg/mL (≈ 15.1 µM); in series [2] (water) it was 10.4 µg/mL (≈ 28 µM); in series [3], “less than 1 mg/100 ml”. In addition, the “synovial fluid: plasma AUC ratios” value in series [4] (after administration of 4 mg twice daily) is approximately 0.5. Further, in series [4] (fasted subjects), the “Tmax, range” value is 84 to 360 min. In series [4] (fasted subjects), the “time to reach peak plasma concentrations (Tmax)” value is recorded as “around 2.5 hours”. The half-life entry in series [4] (in vivo) is listed as “approximately 4 hours”. Further, the “median Tmax” value was 30 min in series [4] (new formulations containing 40% bicarbonate, co-processed intimately (US 20070218128, Bertelsen)) and 150 min in series [4] (standard tablets (US 20070218128, Bertelsen)). Moreover, the results for the pKa in series [5] (basic pyrimido group), in series [5] and in series [5] (enolic group) were 5.5, 4.7 and 1-2, respectively. In addition, in series [5] (n-octanol/buffer pH 7.4), the apparent partition coefficient is 1.8.

For `O=C(O)Cc1ccccc1Nc1c(Cl)cccc1Cl` [diclofenac], the “mean Tmax” value in series [6] (25 mg film-coated tablets with bicarbonate) is 21.2 min; in series [6] (50 mg film-coated tablets with bicarbonate), 29.8 min; in series [6] (standard immediate release tablets), 50.8 min.

The record behind these values is patent US20130171254A1, “FAST DISSOLVING PHARMACEUTICAL COMPOSITION COMPRISING LORNOXICAM” (ABBOTT HEALTHCARE PRIVATE LIMITED, priority 2009, published 2013).
